Data as given in US10071995B2, “Substituted oxopyridine derivatives” (BAYER PHARMA AKTIENGESELLSCHAFT, priority 2014, dated 2018).
pIC50: −log10 of the molar value.

Tests used:
human plasma kallikrein = human plasma kallikrein (Homo sapiens (Human), UniProt P03952); assay: Determination of the plasma kallikrein activity (fluorogenic peptide substrate); assay type: biochemical; details: plasma kallikrein from Kordia, substrate H-Pro-Phe-Arg-AMC, 22° C., 30 min
Protocol: (§1) To determine the plasma kallikrein inhibition of the substances according to the invention, a biochemical test system is used which utilizes the reaction of a peptidic plasma kallikrein substrate to determine the enzymatic activity of human plasma kallikrein. Here, plasma kallikrein cleaves from the peptic plasma kallikrein substrate the C-terminal aminomethylcoumarin (AMC), the fluorescence of which is measured. The determinations are carried out in microtitre plates.
1 μl of the diluted substance solutions is placed into each of the wells of white microtitre plates from Greiner (384 wells). 20 μl of assay buffer (50 mM Tris/HCl pH 7.4; 100 mM sodium chloride solution; 5 mM of calcium chloride solution; 0.1% of bovine serum albumin) and 20 μl of plasma kallikrein from Kordia (0.6 nM in assay buffer) are then added successively. After 15 min of incubation, the enzyme reaction is started by addition of 20 μl of the substrate H-Pro-Phe-Arg-AMC dissolved in assay buffer (10 μM in assay buffer) from Bachem, the mixture is incubated at room temperature (22° C.) for 30 min and fluorescence is then measured (excitation: 360 nm, emission: 460 nm). The measured emissions of the test batches with test substance are compared to those of control batches without test substance (only dimethyl sulphoxide instead of test substance in dimethyl sulphoxide), and IC50 values are calculated from the concentration/activity relationships.

human factor XIa = human factor XIa (Homo sapiens (Human), UniProt P03951); assay: Measurement of FXIa inhibition (fluorogenic peptide substrate); assay type: biochemical; details: factor XIa from Kordia, substrate Boc-Glu(OBzl)-Ala-Arg-AMC, 22° C., 30 min
Chain of human factor XIa (P03951 388-625): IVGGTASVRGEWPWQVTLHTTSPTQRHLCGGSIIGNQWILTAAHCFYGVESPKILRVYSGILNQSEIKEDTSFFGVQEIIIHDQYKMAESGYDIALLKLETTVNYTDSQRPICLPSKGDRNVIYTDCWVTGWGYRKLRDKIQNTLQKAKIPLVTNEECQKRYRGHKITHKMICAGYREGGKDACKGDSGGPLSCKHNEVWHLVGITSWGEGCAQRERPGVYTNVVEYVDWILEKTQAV
Chain of human factor XIa (P03951 19-387 partner): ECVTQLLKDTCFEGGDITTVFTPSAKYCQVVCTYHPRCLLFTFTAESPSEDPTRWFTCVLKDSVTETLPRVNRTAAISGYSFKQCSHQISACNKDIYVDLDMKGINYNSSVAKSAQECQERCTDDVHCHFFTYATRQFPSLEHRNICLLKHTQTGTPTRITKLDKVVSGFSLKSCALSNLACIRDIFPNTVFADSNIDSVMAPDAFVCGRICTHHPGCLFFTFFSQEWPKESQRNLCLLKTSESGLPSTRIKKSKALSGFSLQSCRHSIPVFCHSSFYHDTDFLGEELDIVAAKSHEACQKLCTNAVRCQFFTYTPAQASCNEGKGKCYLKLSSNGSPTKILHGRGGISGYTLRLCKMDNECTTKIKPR
Protocol: as §1, with “The factor XIa” for “To determine the plasma kallikrein”, “invention is determined using” for “invention,”, “system” for “system is used”, “factor XIa” for “plasma kallikrein”, “factor XIa.” for “plasma kallikrein.”
1 μl of the diluted substance solutions is placed into each of the wells of white microtitre plates from Greiner (384 wells). […] After 15 min of incubation, the enzyme reaction is started by addition of 20 μl of the factor XIa substrate Boc-Glu(OBzl)-Ala-Arg-AMC dissolved in assay buffer (10 μM in assay buffer) from Bachem, the mixture is incubated at room temperature (22° C.) for 30 min and fluorescence is then measured (excitation: 360 nm, emission: 460 nm). The measured emissions of the test batches with test substance are compared to those of control batches without test substance (only dimethyl sulphoxide instead of test substance in dimethyl sulphoxide), and IC50 values are calculated from the concentration/activity relationships.

Chain of human plasma kallikrein (P03952 391-638): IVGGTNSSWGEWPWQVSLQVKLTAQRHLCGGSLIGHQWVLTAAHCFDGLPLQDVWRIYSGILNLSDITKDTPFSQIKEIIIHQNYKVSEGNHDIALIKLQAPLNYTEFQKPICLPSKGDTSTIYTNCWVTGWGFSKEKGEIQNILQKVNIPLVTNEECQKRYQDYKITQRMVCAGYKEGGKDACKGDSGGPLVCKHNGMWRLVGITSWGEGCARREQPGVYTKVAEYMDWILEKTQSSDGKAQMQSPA
Chain of human plasma kallikrein (P03952 20-390 partner): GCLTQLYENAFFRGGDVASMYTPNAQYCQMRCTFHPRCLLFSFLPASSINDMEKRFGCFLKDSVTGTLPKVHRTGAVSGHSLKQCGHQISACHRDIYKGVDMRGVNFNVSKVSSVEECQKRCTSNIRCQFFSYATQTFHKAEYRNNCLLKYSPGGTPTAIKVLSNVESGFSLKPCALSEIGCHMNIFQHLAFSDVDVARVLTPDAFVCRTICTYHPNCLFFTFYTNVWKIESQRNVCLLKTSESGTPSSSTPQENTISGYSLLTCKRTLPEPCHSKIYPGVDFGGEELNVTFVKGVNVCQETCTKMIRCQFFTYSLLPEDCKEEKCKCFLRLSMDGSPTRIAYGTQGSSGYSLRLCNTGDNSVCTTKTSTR

Row | SMILES | pIC50 (human plasma kallikrein) | pIC50 (human factor XIa)
1 | COCCC(C(=O)Nc1cc(F)c(C(N)=O)s1)n1cc(OC)c(-c2cc(Cl)ccc2C#N)cc1=O (single isomer, unassigned; enantiomer 1) [Example 10, 5-({2-[4-(5-Chloro-2-cyanophenyl)-5-methoxy-2-oxopyridin-1(2H)-yl]-4-methoxybutanoyl}-amino)-3-fluorothiophene-2-carboxamide (enantiomer 1)] | 7.33 | 7.57
2 | CNC(=O)c1ccc(NC(=O)C(Cc2ccn(C)n2)n2cc(OC)c(-c3cc(Cl)ccc3C#N)cc2=O)s1 (racemic) [Example 15, 5-({2-[4-(5-Chloro-2-cyanophenyl)-5-methoxy-2-oxopyridin-1(2H)-yl]-3-(1-methyl-1H-pyrazol-3-yl)propanoyl}amino)-N-methylthiophene-2-carboxamide (racemate)] | 8.80 | 8.27
3 | COCCC(C(=O)Nc1ccc(C(N)=O)s1)n1cc(Cl)c(-c2cc(Cl)ccc2C#N)cc1=O (racemic) [Example 2, 5-({2-[5-Chloro-4-(5-chloro-2-cyanophenyl)-2-oxopyridin-1(2H)-yl]-4-methoxybutanoyl}amino)-thiophene-2-carboxamide (racemate)] | 7.55 | 7.59
4 | CNC(=O)c1ccc(NC(=O)C(Cc2ccn(C)n2)n2cc(OC)c(-c3cc(Cl)ccc3C#N)cc2=O)s1 (single isomer, unassigned; enantiomer 1) [Example 16, 5-({2-[4-(5 -Chloro-2-cyanophenyl)-5-methoxy-2-oxopyridin-1(2H)-yl]-3-(1-methyl-1H-pyrazol-3-yl)propanoyl}amino)-N-methylthiophene-2-carboxamide (enantiomer 1)] | 8.82 | 8.55
5 | COCCC(C(=O)Nc1ccc(C(=O)O)s1)n1cc(OC)c(-c2cc(Cl)ccc2C#N)cc1=O (racemic) [Example 7, 5-({2-[4-(5-Chloro-2-cyanophenyl)-5-methoxy-2-oxopyridin-1(2H)-yl]-4-methoxybutanoyl}amino)-thiophene-2-carboxylic acid (racemate)] |  | 8.52
6 | COCCC(C(=O)Nc1cc(F)c(C(N)=O)s1)n1cc(OC)c(-c2cc(Cl)ccc2C#N)cc1=O (racemic) [Example 9, 5-({2-[4-(5-Chloro-2-cyanophenyl)-5-methoxy-2-oxopyridin-1(2H)-yl]-4-methoxybutanoyl}amino)-3-fluorothiophene-2-carboxamide (racemate)] | 7.00 | 7.27
7 | CNC(=O)c1ccc(NC(=O)C(Cc2cnco2)n2cc(OC)c(-c3cc(Cl)ccc3C#N)cc2=O)s1 (racemic) [Example 17, 5-({2-[4-(5-Chloro-2-cyanophenyl)-5-methoxy-2-oxopyridin-1(2H)-yl]-3-(1,3-oxazol-5-yl)-propanoyl}amino)-N-methylthiophene-2-carboxamide (racemate)] |  | 8.21
8 | COc1cn(C(Cc2ccncc2)C(=O)Nc2cc(F)c(C(N)=O)s2)c(=O)cc1-c1cc(Cl)ccc1C#N (racemic) [Example 4, 5-({2-[4-(5-Chloro-2-cyanophenyl)-5-methoxy-2-oxopyridin-1(2H)-yl]-3-(pyridin-4-yl)propanoyl}-amino)-3-fluorothiophene-2-carboxamide (racemate)] | 7.44 | 7.54

Further lines, results first:

Row | pIC50 (human plasma kallikrein) | pIC50 (human factor XIa) | SMILES
9 |  | 7.47 | COc1cn(C(Cc2ccccn2)C(=O)Nc2cc(F)c(C(N)=O)s2)c(=O)cc1-c1cc(Cl)ccc1C#N (racemic) [Example 3, 5-({2-[4-(5-Chloro-2-cyanophenyl)-5-methoxy-2-oxopyridin-1(2H)-yl]-3-(pyridin-2-yl)propanoyl}-amino)-3-fluorothiophene-2-carboxamide (racemate)]
10 | < 5.00 | 5.92 | COc1cn(C(Cc2ccccn2)C(=O)Nc2cc(F)c(C(N)=O)s2)c(=O)cc1-c1cc(Cl)ccc1F (racemic) [Example 6, 5-({2-[4-(5-Chloro-2-fluorophenyl)-5-methoxy-2-oxopyridin-1(2H)-yl]-3-(pyridin-2-yl)propanoyl}-amino)-3-fluorothiophene-2-carboxamide (racemate)]
11 | 7.33 | 8.16 | COCCC(C(=O)Nc1ccc(C(=O)O)s1)n1cc(Cl)c(-c2cc(Cl)ccc2C#N)cc1=O (racemic) [Example 19, 5-({2-[5-Chloro-4-(5-chloro-2-cyanophenyl)-2-oxopyridin-1(2H)-yl]-4-methoxybutanoyl}amino)-thiophene-2-carboxylic acid (racemate)]
12 |  | 8.59 | COc1cn(C(Cc2ccccn2)C(=O)Nc2ccc(C(=O)O)s2)c(=O)cc1-c1cc(Cl)ccc1C#N (racemic) [Example 18, 5-({2-[4-(5-Chloro-2-cyanophenyl)-5-methoxy-2-oxopyridin-1(2H)-yl]-3-(pyridin-2-yl)propanoyl}-amino)thiophene-2-carboxylic acid (racemate)]
